Data published in patent publication US11931428B2, “Selective hydrogen sulfide probe and uses thereof” (Wake Forest University Health Sciences, priority 2019, dated 2024).

Tests used:
[1] = Time-dependent and concentration-dependent fluorescence sensing of H2S in PBS buffer; details: AL1 20 μM, Na2S 50 μM, PBS buffer pH 7.4, room temperature
Experimental: FIG. 3. (A) Time-dependent fluorescence emission (λex: 330 nm) of AL1 (20 μM) in the presence of Na2S (50 μM). (B) Fluorescence intensity (λex: 330 nm) of AL1 ([…]) in response to increasing Na2S concentrations.
The efficiency of AL1 in sensing H2S in PBS buffer (pH 7.4) and at room temperature was also assessed (FIG. 3A). Under these conditions, the resulting fluorescence intensity reached a maximum in less than two minutes, highlighting that our designed probe is not only selective but also highly reactive towards H2S—a necessary feature for detecting analytes which are short-lived. To determine if AL1 could also be used to detect H2S quantitatively in buffer, the resulting fluorescence was measured in response to a series of different concentrations of H2S (FIG. 3B). Indeed, the ensuing fluorescence intensity increased in a linear fashion in the range of 0-20 μM H2S and with a detection limit of 0.05 μM.

[2] = Stability in PBS buffer over a 24 h incubation period (fluorescence); assay type: physicochemical
Experimental: (§1) FIG. 2. Fluorescence response (λex: 330 nm) of probes (20 μM) at room temperature and under varying conditions: (A and B): (1): 24 hour incubation period in PBS buffer alone; (2): 24 hour incubation period in PBS buffer followed by the addition of Na2S (50 μM). (C and D): (1): 10 min incubation period in fetal bovine plasma alone; (2): 10 min incubation period in fetal bovine plasma and in the presence of Na2S (50 μM). AL1: 2A and 2C and AL3: 2B and 2D.
(§2) To further establish the increased durability of AL1 relative to AL3, we tested the stability of both compounds in PBS buffer over a 24 h incubation period (FIGS. 2A and 2B). […] The stability of AL1 and AL3 was also assessed in fetal bovine plasma (FIGS. 2C and 2D).

[3] = Selectivity of fluorescence turn-on towards H2S versus biological thiols and nucleophiles in PBS buffer; details: probe 20 μM
Experimental: FIG. 1. Fluorescence response (λex: 330 nm) of probes (20 μM) in PBS buffer (pH 7.4), at room temperature, and in the presence of various biological thiols and nucleophiles: (1) PBS buffer alone; (2) 50 μM Na2S; (3) 100 μM cysteine; (4) 1 mM glutathione; (5) 100 μM serine; (6) 100 μM lysine; (7) 1 mM glutathione+50 μM Na2S. (A): Probe AL1 and (B): Probe AL3.
To assess our hypothesis, the selectivity of our design towards H2S was first assessed by incubating AL1 (20 μM) with various biological thiols and nucleophiles in PBS buffer (FIG. 1A). After reacting for 10 min at room temperature, the resulting turn-on response was gauged using fluorescence spectroscopy. The results from this assay were indeed stunning. In the presence of 50 μM Na2S (an H2S equivalent at physiological pH) a greater than 100-fold increase in relative fluorescence intensity was observed. […] Moreover, this assay confirmed that AL1 is not consumed by the presence of other thiols and that its reactivity towards H2S is retained in their presence (FIG. 1A, Column 7). To confirm that the gem-dimethyl group affords enhanced differentiation, we also generated AL3 which lacks the steric shield alpha to the ester carbonyl.

[4] = Stability in fetal bovine plasma (fluorescence); assay type: in vitro ADME; details: probe 20 μM
Experimental: as §1, §2

HeLa cells = test: Confocal fluorescence imaging of H2S in live HeLa cells; assay type: cell-based; details: for fluorescence in cells upon treatment with Na2S / fluorescence in cells, probe alone (no Na2S): HeLa, AL2 10 μM; for fluorescence in cells upon treatment with Na2S: 50 μM Na2S, AL1 12.5 μM, ex 405 nm, em 452 nm; for fluorescence in cells, probe alone (no Na2S): AL1 12.5 μM 45 min then washed
Experimental: FIG. 4. (A) Visualization of H2S in live HeLa cells with AL1 (12.5 μm). Imaging: ex: 405 nm, em: 452 nm. (a and b): No Na2S added (control); (c and d): Addition of Na2S (50 μm). Scale bar is set to 20 μm. (B) Visualization of H2S in live HeLa cells with AL4 (5 μm). Imaging: ex: 561 nm, em: 587 nm. (e and f): No Na2S added (control); g and h: Addition of Na2S (25 μM). Scale bar is set to 20 μm.
FIG. 5. Fluorescence images of live HeLa cells treated with AL2 (10 μM); (a and b): No Na2S (control); (c and d): Addition of Na2S (50 μM); (e and f): Fluorescence images of HeLa cells pretreated with biotin (2 mM) followed by treatments with AL2 (10 μM) and Na2S (50 μM). Imaging: ex: 405 nm, em: 452 nm. Scale bar is set to 20 μm.
Probe AL1 was also shown to be useful in imaging H2S in live cells using confocal microscopy. Cultured HeLa cells were incubated with AL1 (12.5 μM) for 45 min and then washed to remove any excess probe. […] Probe AL4 utilizes resorufin as its latent fluorescent reporter which has the added benefit of longer excitation and emission wavelengths, further boosting its potential in tissue imaging applications.
(§3) As a proof of concept we generated AL2, a cancer cell-specific H2S probe, by coupling biotin to its amine handle (Scheme 1). W. X. Ren et al, Chem. Commun. 2015, 51, 10403-10418; X. Song et al, RSC Adv. 2017, 7, 15817-15822; M. H. Lee et al, Chem. Soc. Rev. 2018, 47, 28-52. Fluorescence imaging experiments were then conducted using both a biotin positive (HeLa) and biotin negative (HEK293) cell line to confirm its selective targeting and delivery. […] To confirm that AL2 was targeting biotin cell surface receptors, in a separate experiment, HeLa cells were pre-treated with biotin prior to the addition of AL2. […] The selectivity of AL2 was further established using HEK293 (noncancerous human embryonic kidney) cells.

HEK293 cells = test: Fluorescence imaging in live HEK293 cells (biotin negative); assay type: cell-based, human; details: AL2 10 μM, with or without Na2S 50 μM
Experimental: FIG. 6. Fluorescence images of live HEK293 cells. (a and b): Treatment with AL2 (10 μM) alone; (c and d): Treatment with AL2 (10 μM) followed by treatment with Na2S (50 μM). Imaging: ex: 405 nm, em: 452 nm. Scale bar is set to 20 μm.
as §3

| Compound | time for fluorescence intensity to reach a maximum [1] | fluorescence on addition of Na2S after prolonged exposure to buffer ([2]; 24 h in PBS buffer, then Na2S 50 μM) | stability in PBS buffer alone ([2]; probe 20 μM, 24 h incubation, room temperature) | increase in relative fluorescence intensity ([3]; 50 μM Na2S, PBS buffer pH 7.4, 10 min, room temperature, λex 330 nm) | reactivity towards H2S in the presence of other thiols ([3]; 1 mM glutathione + 50 μM Na2S, PBS pH 7.4 (FIG. 1A, Column 7)) | selectivity: fluorescence in the presence of other biologically relevant thiols and nucleophiles ([3]; 100 μM cysteine, 1 mM glutathione, 100 μM serine, 100 μM lysine, PBS pH 7.4, 10 min, room temperature) | turn-on response in fetal bovine plasma when Na2S present ([4]; 10 min, Na2S 50 μM) | stability in fetal bovine plasma (fluorescence in the absence of Na2S) ([4]; 10 min incubation, room temperature) | fluorescence in cells upon treatment with Na2S (HeLa cells) | fluorescence in cells, probe alone (no Na2S) (HeLa cells) | fluorescence in cells pre-treated with biotin, after Na2S (HeLa cells; HeLa pretreated with biotin 2 mM, then AL2 10 μM and Na2S 50 μM) | fluorescence in cells, even upon addition of exogenous Na2S (HEK293 cells) |
| --- | --- | --- | --- | --- | --- | --- | --- | --- | --- | --- | --- | --- |
| CC(=O)NCCS[Se]CC(C)(C)C(=O)Oc1ccc2ccc(=O)oc2c1 [AL1] | less than two | impressive turn-on fluorescence | superb stability | greater than 100 fold | retained | no increase in fluorescence was detected | marked turn-on response | remarkable stability | strong blue fluorescence | did not observe any fluorescent cells |  |  |
| CC(C)(C[Se]SCCNC(=O)CCCC[C@@H]1SC[C@@H]2NC(=O)N[C@@H]21)C(=O)Oc1ccc2ccc(=O)oc2c1 [AL2] |  |  |  |  |  |  |  |  | strong blue fluorescent signal | minimal fluorescence | did not produce any fluorescence | negligible fluorescence |
